Assay results published in ChEMBL document CHEMBL4387742, “Naturally occurring biflavonoids with amyloid β aggregation inhibitory activity for development of anti-Alzheimer agents” (Bioorg Med Chem Lett, 2019).

biological target: T1, Amyloid-beta precursor protein (Homo sapiens, UniProt P05067); experiment: Inhibition of amyloid beta (1 to 42) (unknown origin) assessed as reduction in aggregation at 50 uM by ThT fluorescence assay
T1 sequence (P05067 whole entry): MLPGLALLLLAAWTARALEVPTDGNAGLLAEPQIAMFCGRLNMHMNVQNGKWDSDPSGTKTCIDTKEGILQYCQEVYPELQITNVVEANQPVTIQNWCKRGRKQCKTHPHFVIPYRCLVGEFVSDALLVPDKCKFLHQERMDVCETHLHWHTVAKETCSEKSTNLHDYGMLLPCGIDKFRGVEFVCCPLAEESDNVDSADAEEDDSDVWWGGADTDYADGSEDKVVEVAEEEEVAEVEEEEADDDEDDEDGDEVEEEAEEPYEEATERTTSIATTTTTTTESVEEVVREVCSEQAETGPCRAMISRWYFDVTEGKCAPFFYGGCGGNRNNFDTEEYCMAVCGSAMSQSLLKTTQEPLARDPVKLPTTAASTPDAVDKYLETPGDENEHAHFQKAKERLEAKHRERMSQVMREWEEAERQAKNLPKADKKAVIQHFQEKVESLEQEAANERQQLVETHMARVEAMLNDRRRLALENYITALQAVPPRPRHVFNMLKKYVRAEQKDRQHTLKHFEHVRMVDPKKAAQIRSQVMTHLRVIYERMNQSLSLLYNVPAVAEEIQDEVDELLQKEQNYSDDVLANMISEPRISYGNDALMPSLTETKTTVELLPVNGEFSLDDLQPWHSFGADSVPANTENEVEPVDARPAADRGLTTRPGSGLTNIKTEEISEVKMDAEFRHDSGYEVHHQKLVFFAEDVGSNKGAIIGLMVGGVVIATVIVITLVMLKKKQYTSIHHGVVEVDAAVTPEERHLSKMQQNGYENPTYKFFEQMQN

inhibition | Compound
44% | COc1ccc(-c2cc(=O)c3c(O)cc(O)c(-c4cc(-c5cc(=O)c6c(O)cc(OC)cc6o5)ccc4OC)c3o2)cc1 [SCIADOPITISIN]

biological target: T1, Amyloid-beta precursor protein; experiment: Inhibition of human amyloid beta (1 to 40) assessed as reduction in aggregation measured after 24 hrs by ThT fluorescence assay

Compound | IC50
O=c1cc(-c2ccc(O)cc2)oc2cc(O)cc(O)c12 [APIGENIN] | > 50 µM
COc1ccc(-c2cc(=O)c3c(O)cc(O)cc3o2)cc1-c1c(O)cc2oc(-c3ccc(O)cc3)cc(=O)c2c1O | > 50 µM
COc1ccc(-c2cc(=O)c3c(O)cc(OC)c(-c4c(OC)cc5oc(-c6ccc(O)cc6)cc(=O)c5c4O)c3o2)cc1 | > 50 µM
COc1cc(O)c2c(=O)cc(-c3ccc(OC)c(-c4c(OC)cc(O)c5c(=O)cc(-c6ccc(O)cc6)oc45)c3)oc2c1 | > 50 µM
COc1ccc(-c2cc(=O)c3c(O)cc(OC)c(-c4cc(-c5cc(=O)c6c(O)cc(OC)cc6o5)ccc4OC)c3o2)cc1 | > 50 µM
COc1cc2oc(-c3ccc(O)cc3)cc(=O)c2c(O)c1Oc1ccc(-c2cc(=O)c3c(O)cc(O)cc3o2)cc1 | > 50 µM
COc1ccc(-c2cc(=O)c3c(O)cc(OC)c(-c4cc(-c5cc(=O)c6c(O)cc(OC)cc6o5)ccc4O)c3o2)cc1 [HEVEAFLAVONE] | > 50 µM
COc1ccc(-c2cc(=O)c3c(O)c(Oc4ccc(-c5cc(=O)c6c(O)cc(O)cc6o5)cc4)c(O)cc3o2)cc1 | > 50 µM
COc1cc(O)c2c(=O)cc(-c3ccc(O)cc3)oc2c1-c1cc(-c2cc(=O)c3c(O)cc(O)cc3o2)ccc1O [SOTETSUFLAVONE] | > 50 µM
COc1ccc(-c2cc(=O)c3c(O)cc(O)cc3o2)cc1-c1c(OC)cc(O)c2c(=O)cc(-c3ccc(O)cc3)oc12 | > 50 µM
COc1ccc(-c2cc(=O)c3c(O)c(Oc4ccc(-c5cc(=O)c6c(O)cc(O)cc6o5)cc4)c(OC)cc3o2)cc1 | > 50 µM
COc1ccc(-c2cc(=O)c3c(O)cc(OC)c(-c4c(OC)cc(O)c5c(=O)cc(-c6ccc(OC)cc6)oc45)c3o2)cc1 | > 50 µM
COc1ccc(-c2cc(=O)c3c(O)cc(OC)c(-c4cc(-c5cc(=O)c6c(O)cc(O)cc6o5)ccc4OC)c3o2)cc1 [KAYAFLAVONE] | > 50 µM

More lines, now with the values ahead:

IC50 | Compound
4.8 µM | O=c1cc(-c2ccc(O)c(-c3c(O)cc(O)c4c(=O)cc(-c5ccc(O)cc5)oc34)c2)oc2cc(O)cc(O)c12 [AMENTOFLAVONE]
4.9 µM | COc1ccc(-c2cc(=O)c3c(O)cc(O)c(-c4cc(-c5cc(=O)c6c(O)cc(O)cc6o5)ccc4O)c3o2)cc1 [PODOCARPUSFLAVONE A]
13.2 µM | COc1cc(O)c2c(=O)cc(-c3ccc(OC)c(-c4c(O)cc(O)c5c(=O)cc(-c6ccc(O)cc6)oc45)c3)oc2c1 [GINKGETIN]
15.9 µM | COc1ccc(-c2cc(=O)c3c(O)cc(O)c(-c4c(OC)cc5oc(-c6ccc(O)cc6)cc(=O)c5c4O)c3o2)cc1
20.1 µM | COc1ccc(-c2cc(=O)c3c(O)cc(OC)c(-c4cc(-c5cc(=O)c6c(O)cc(O)cc6o5)ccc4O)c3o2)cc1 [7'',4'''-dimethylamentoflavone]
> 50 µM | COc1ccc(-c2cc(=O)c3c(O)cc(O)c(-c4cc(-c5cc(=O)c6c(O)cc(OC)cc6o5)ccc4OC)c3o2)cc1 [SCIADOPITISIN]
4.7 µM | COc1ccc(-c2cc(=O)c3c(O)cc(O)cc3o2)cc1-c1c(O)cc(O)c2c(=O)cc(-c3ccc(O)cc3)oc12 [BILOBETIN]
32.8 µM | COc1cc2oc(-c3ccc(O)cc3)cc(=O)c2c(O)c1-c1c(OC)cc(O)c2c(=O)cc(-c3ccc(O)cc3)oc12
13 µM | COc1cc2oc(-c3ccc(O)cc3)cc(=O)c2c(O)c1-c1c(O)cc(O)c2c(=O)cc(-c3ccc(O)cc3)oc12
21.3 µM | COc1cc2oc(-c3ccc(O)cc3)cc(=O)c2c(O)c1-c1cc(-c2cc(=O)c3c(O)cc(O)cc3o2)ccc1O
17.3 µM | COc1cc(O)c2c(=O)cc(-c3ccc(O)cc3)oc2c1-c1c(OC)cc(O)c2c(=O)cc(-c3ccc(O)cc3)oc12
10.1 µM | COc1ccc(-c2cc(=O)c3c(O)cc(O)c(-c4cc(-c5cc(=O)c6c(O)cc(O)cc6o5)ccc4OC)c3o2)cc1 [ISOGINKGETIN]
9.5 µM | O=c1cc(-c2ccc(Oc3c(O)cc4oc(-c5ccc(O)cc5)cc(=O)c4c3O)cc2)oc2cc(O)cc(O)c12 [HINOKIFLAVONE]
45.6 µM | COc1ccc(-c2cc(=O)c3c(O)cc(OC)c(-c4c(OC)cc(O)c5c(=O)cc(-c6ccc(O)cc6)oc45)c3o2)cc1
4.9 µM | COc1cc(O)c2c(=O)cc(-c3ccc(O)c(-c4c(O)cc(O)c5c(=O)cc(-c6ccc(O)cc6)oc45)c3)oc2c1 [SEQUOIAFLAVONE]
